Assay results from publication PMC5859971 (Genes & Development, 2018).

What was measured:
[1] = system: splicing of Ad2.1 pre-mRNA substrate; test: In vitro splicing (IVS) assay, Ad2.1 substrate, HeLa S3 nuclear extracts, RT-qPCR; type: biochemical, human; conditions: Ad2.1 (strong) substrate
Text: A substrate competitive mechanism of action (MOA) would predict that weaker pre-mRNA substrates would be easier to inhibit than stronger substrates. To date, it has not been possible to evaluate substrate competition using traditional steady-state conditions because splicing reactions are thought to be single-turnover events in vitro, and therefore it is not possible to measure a KM for the pre-mRNA. […] Specifically, we engineered the strong in vitro splicing substrate Ad2.1 by enhancing the U2 snRNP base-pairing around the BPA found in the Ad2 substrate. We then engineered a weaker substrate, Ad2.2, by adding a decoy BPS lacking an extrahelical adenosine (Ad2.2) (Fig. 5A; Supplemental Vector NTI files; [Corrionero et al. 2011]). […] We then evaluated E7107 and several chemical probes to better understand their mechanism.
Figure 5. […] (A) Base-pairing logic for IVS substrates. (BPRS) Branch point recognition sequence in U2 snRNA; (BPS) the BPS in the pre-mRNA. The Ad2 gene BPS sequence (UACUUAU) was modified (UACUAAU) to strengthen the U2 base-pairing interactions flanking the BPA, leading to the Ad2.1 substrate (BPA in red). The Ad2.2 sequence has the same BPS as Ad2 but also contains a 5′ decoy BPS sequence (lacking an extrahelical adenine) that can base-pair with the BPRS. The decoy BPS and suboptimal BPS overlap, which gives U2 at least two possibilities for possible base pairing, as indicated. […] (B) RT-qPCR time-course data showing product formation over time. […] (C) Representative IC50 curves for compound 6 using the two different substrates (Ad2.1 and Ad2.2).
The Ad2-derived ([Pellizzoni et al. 1998]) sequence was cloned into the pGEM-3Z vector (Promega) using 5′ EcoRI and 3′ XbaI restriction sites. The Ad2 variant (Ad2.2) ([Seiler et al. 2018]) was cloned into pcDNA3.1(+) vector (Promega) using the same restriction sites. The plasmids were linearized using XbaI and used as DNA templates in the in vitro transcription reactions. The FtzΔi intron-less plasmid ([Luo and Reed 1999]) was linearized using EcoRI. All RNAs were in vitro transcribed and then purified using MegaScript T7 and MegaClear kits, respectively (Invitrogen). For splicing reactions used with the Ad2.2 substrate, […] reactions were prepared using 8 µg of nuclear extracts prepared from HeLa S3, a saturating excess of 2 ng of pre-mRNA substrate, 0.2 ng of FTZΔi, and varying concentrations of compounds or DMSO.

[2] = molecular target: T1, wild-type mini-SF3b complex (4-protein SF3b complex) (Homo sapiens, UniProt O75533+Q7RTV0); test: Scintillation proximity assay (SPA) competition with 3H-labeled pladienolide probe; type: binding; conditions: competition with 10 nM 3H-labeled pladienolide probe, 25 nM protein; read-out: SPA IC50
T1 construct: SF3B1 was limited to the HEAT repeat domain from residues 454–1304 and cloned in-frame with an N-terminal Flag tag; Truncated SF3B1 and full-length SF3B3, PHF5A, and SF3B5 were synthesized; made in house; host or cells: SF21 insect cells (baculovirus, pFastBac1)
T1 sequence (Q7RTV0 whole entry, the tested form may be a part): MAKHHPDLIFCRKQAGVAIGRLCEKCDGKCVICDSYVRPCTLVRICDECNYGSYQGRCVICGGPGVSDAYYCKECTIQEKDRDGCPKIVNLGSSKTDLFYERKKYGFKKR
T1 sequence (Q15393 whole entry, further chain, the tested form may be a part): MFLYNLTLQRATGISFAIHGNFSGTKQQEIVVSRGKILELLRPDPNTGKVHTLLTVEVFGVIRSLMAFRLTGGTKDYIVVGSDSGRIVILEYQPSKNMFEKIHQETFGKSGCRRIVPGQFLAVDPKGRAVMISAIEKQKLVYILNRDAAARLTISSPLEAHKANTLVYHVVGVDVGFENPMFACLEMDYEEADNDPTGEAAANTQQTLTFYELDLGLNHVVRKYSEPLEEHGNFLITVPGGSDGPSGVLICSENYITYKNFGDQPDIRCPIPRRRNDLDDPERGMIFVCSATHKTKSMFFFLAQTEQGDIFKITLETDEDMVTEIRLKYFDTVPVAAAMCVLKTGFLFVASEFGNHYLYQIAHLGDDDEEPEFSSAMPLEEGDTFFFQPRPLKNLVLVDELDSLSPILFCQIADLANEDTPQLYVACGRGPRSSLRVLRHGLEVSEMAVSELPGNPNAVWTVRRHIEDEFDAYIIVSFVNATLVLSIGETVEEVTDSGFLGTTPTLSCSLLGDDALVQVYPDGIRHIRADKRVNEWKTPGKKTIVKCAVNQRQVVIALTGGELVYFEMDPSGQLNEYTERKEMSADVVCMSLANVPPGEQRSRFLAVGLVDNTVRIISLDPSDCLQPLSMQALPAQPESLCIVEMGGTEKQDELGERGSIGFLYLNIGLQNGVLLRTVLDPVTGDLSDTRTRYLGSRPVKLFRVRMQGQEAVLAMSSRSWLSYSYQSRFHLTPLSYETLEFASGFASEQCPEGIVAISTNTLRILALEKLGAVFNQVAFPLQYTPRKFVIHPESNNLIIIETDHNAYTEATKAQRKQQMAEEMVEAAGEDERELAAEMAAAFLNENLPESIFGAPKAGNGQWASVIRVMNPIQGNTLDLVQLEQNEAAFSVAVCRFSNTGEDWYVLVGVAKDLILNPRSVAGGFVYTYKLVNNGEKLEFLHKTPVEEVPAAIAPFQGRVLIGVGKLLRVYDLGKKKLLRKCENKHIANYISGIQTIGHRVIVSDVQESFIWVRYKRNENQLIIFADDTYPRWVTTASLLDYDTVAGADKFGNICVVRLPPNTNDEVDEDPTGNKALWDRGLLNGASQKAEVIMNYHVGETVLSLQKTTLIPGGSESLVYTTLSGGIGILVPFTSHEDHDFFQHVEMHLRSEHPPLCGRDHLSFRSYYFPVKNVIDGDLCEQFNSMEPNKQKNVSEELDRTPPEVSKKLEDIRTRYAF
T1 sequence (O75533 454-1304): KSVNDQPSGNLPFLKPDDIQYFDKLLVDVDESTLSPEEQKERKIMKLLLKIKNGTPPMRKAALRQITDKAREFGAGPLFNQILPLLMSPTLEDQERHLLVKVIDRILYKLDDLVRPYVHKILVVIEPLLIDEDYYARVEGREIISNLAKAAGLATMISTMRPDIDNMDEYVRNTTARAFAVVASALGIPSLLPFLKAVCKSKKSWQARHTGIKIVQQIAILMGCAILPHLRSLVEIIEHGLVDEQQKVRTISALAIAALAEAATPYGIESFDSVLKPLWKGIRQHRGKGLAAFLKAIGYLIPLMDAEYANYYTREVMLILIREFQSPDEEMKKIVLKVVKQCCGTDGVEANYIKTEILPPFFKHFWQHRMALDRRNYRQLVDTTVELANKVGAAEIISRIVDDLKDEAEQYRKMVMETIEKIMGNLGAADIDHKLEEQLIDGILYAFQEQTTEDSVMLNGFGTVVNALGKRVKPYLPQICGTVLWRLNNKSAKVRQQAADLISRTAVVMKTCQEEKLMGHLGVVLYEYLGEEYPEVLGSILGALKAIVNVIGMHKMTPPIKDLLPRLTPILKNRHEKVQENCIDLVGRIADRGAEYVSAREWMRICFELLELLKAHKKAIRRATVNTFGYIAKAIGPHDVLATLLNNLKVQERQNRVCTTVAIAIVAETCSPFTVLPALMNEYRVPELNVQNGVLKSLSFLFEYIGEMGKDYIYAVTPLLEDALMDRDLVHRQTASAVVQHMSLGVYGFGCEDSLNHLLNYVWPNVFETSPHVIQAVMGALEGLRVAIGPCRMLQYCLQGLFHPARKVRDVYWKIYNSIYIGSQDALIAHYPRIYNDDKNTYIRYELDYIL
T1 sequence (Q9BWJ5 whole entry, further chain, the tested form may be a part): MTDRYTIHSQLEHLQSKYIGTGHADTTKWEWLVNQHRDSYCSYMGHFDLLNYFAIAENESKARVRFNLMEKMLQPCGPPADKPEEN
Procedure: To further validate the pose of the compound, we analyzed the activity of several related chemical probes using the SPA with the purified protein complex ([Teng et al. 2017]). The SPA is formatted as a competition assay in which the purified protein complex is captured on a bead containing scintillant, incubated with test compounds over a dose response, and then competed off with a fixed concentration of ^3H-Plad compound. IC50 curves are then measured from the resulting light emitted from the bead (Table 1; Supplemental Fig. S4). In addition, we tested the probes in viability assays in two engineered cell lines: HCT116-PHF5A^WT and the sensitization line HCT116-PHF5A^R38C (Table 1; Supplemental Fig. S5). This facilitates profiling of chemical probe activity in the PHF5A background (wild type and mutant). The relative expression levels were further confirmed by Western blot analysis (Supplemental Fig. S5).
Batch immobilization of the anti-Flag antibody (Sigma) to the anti-mouse PVT SPA scintillation beads (PerkinElmer) was prepared as follows. For every 1.5 mg of beads, 10 µg of antibody was prepared in 150 µL of PBS. The antibody–bead mixture was incubated for 30 min at room temperature and centrifuged at 18,000g for 5 min. One-hundred-fifty microliters of PBS was used to resuspend every 1.5 mg of antibody–bead mixture. The aforementioned mini-SF3b complex was tested for ^3H-labeled pladienolide probe binding ([Kotake et al. 2007]). One-hundred microliters of binding reactions was prepared with […] of bead slurry and 0 or 50 nM protein in buffer (20 mM HEPES at pH 8, 200 mM KCl, 5% glycerol). The mixture was incubated for 30 min, and varying concentrations of ^3H-labeled pladienolide probe were added. The mixture was incubated for 30 min, and luminescence signals were read using a MicroBeta2 plate counter (PerkinElmer). Compound competition studies were performed with the wild-type mini-SF3b complex. One-hundred microliters of binding reactions was prepared with 50 µL of bead slurry, 25 nM protein in buffer, and compounds at varying concentrations. After 30 min of preincubation, 10 nM ^3H-labeled pladienolide probe was added. The reactions were incubated for 30 min, and luminescence signals were read.
The Scintillation proximity assay (SPA) competition assay with 10 nM 3H tracer for different Pladienolide analogs binding to the 4-protein SF3b complex. Error bars represent STD for 2 or more measurements. Red = E7107, Orange = PladD, Purple = PladF, Green = compound 2, red = compound 3, gray = compound 4, black = compound 5, blue = compound 6. […]

[3] = system: SF3B1^R1074H and PHF5A^Y36 mutations; conditions: strongest levels of resistance; ref Yokoi et al. 2011; Teng et al. 2017; cited from earlier work

## CCC(O)C(C)C1OC1CC(C)(O)C=CC=C(C)C1OC(=O)CC(O)CCC(C)(O)C(OC(=O)N2CCN(C3CCCCCC3)CC2)C=CC1C (stereo not drawn) [Compound E7107]
[1]
  IC50: 9.1 nM
[2]
  IC50: 67 nM
[3]
  resistance conferred by SF3B1^R1074H and PHF5A^Y36C: > 500 fold
